Data taken from the NIST ThermoML archive (doi:10.1021/je200150r).
± gives the expanded uncertainty stated by the source.

What was measured:
[1] = 101 kPa, Liquid; for viscosity: Capillary tube (Ostwald / Ubbelohde) method; for mass density: Pycnometric method
[2] = xn = mol fraction of the nth substance listed; conditions: 101 kPa, Liquid, x2 = 0; for viscosity: Capillary tube (Ostwald / Ubbelohde) method; for mass density: Pycnometric method

Row | Structure (SMILES) | viscosity ([1]; 303.15 K) [mPa·s] | mass density ([1]; 303.15 K) [kg/m3] | viscosity ([1]; 308.15 K) [mPa·s] | mass density ([1]; 308.15 K) [kg/m3] | viscosity ([1]; 313.15 K) [mPa·s] | mass density ([1]; 313.15 K) [kg/m3] | viscosity ([1]; 318.15 K) [mPa·s] | mass density ([1]; 318.15 K) [kg/m3] | viscosity ([1]; 323.15 K) [mPa·s] | mass density ([1]; 323.15 K) [kg/m3] | viscosity ([2]; 303.15 K) [mPa·s] | mass density ([2]; 303.15 K) [kg/m3] | viscosity ([2]; 308.15 K) [mPa·s] | mass density ([2]; 308.15 K) [kg/m3] | viscosity ([2]; 313.15 K) [mPa·s] | mass density ([2]; 313.15 K) [kg/m3] | viscosity ([2]; 318.15 K) [mPa·s] | mass density ([2]; 318.15 K) [kg/m3] | viscosity ([2]; 323.15 K) [mPa·s] | mass density ([2]; 323.15 K) [kg/m3]
1 | OCc1ccccc1 [benzenemethanol] | 4.689 ± 0.059 | 1037.6 ± 0.9 | 4.058 ± 0.051 | 1033.8 ± 0.9 | 3.531 ± 0.044 | 1030.1 ± 0.9 | 3.103 ± 0.039 | 1026.3 ± 0.9 | 2.747 ± 0.035 | 1022.5 ± 0.9 | – | – | – | – | – | – | – | – | – | –
2 | CCC(C)=O [butanone] | 0.362 ± 0.005 | 794 ± 0.9 | 0.345 ± 0.005 | 788.8 ± 0.9 | 0.33 ± 0.004 | 783.5 ± 0.9 | 0.316 ± 0.004 | 778.3 ± 0.9 | 0.303 ± 0.004 | 773 ± 0.9 | – | – | – | – | – | – | – | – | – | –
3 | CCC(C)=O [butanone] + OCc1ccccc1 | – | – | – | – | – | – | – | – | – | – | 0.362 ± 0.005 | 794 ± 0.9 | 0.345 ± 0.005 | 788.8 ± 0.9 | 0.33 ± 0.004 | 783.5 ± 0.9 | 0.316 ± 0.004 | 778.3 ± 0.9 | 0.303 ± 0.004 | 773 ± 0.9
